# Assays:
# JAK3 = target: T1, JAK3 (Homo sapiens, UniProt P52333); assay: Western blot of upper signaling in L540 cells: JAK3; assay type: cell-based
# T1 construct: endogenous in cells; host or cells: L540
# T1 sequence (P52333 1-1124): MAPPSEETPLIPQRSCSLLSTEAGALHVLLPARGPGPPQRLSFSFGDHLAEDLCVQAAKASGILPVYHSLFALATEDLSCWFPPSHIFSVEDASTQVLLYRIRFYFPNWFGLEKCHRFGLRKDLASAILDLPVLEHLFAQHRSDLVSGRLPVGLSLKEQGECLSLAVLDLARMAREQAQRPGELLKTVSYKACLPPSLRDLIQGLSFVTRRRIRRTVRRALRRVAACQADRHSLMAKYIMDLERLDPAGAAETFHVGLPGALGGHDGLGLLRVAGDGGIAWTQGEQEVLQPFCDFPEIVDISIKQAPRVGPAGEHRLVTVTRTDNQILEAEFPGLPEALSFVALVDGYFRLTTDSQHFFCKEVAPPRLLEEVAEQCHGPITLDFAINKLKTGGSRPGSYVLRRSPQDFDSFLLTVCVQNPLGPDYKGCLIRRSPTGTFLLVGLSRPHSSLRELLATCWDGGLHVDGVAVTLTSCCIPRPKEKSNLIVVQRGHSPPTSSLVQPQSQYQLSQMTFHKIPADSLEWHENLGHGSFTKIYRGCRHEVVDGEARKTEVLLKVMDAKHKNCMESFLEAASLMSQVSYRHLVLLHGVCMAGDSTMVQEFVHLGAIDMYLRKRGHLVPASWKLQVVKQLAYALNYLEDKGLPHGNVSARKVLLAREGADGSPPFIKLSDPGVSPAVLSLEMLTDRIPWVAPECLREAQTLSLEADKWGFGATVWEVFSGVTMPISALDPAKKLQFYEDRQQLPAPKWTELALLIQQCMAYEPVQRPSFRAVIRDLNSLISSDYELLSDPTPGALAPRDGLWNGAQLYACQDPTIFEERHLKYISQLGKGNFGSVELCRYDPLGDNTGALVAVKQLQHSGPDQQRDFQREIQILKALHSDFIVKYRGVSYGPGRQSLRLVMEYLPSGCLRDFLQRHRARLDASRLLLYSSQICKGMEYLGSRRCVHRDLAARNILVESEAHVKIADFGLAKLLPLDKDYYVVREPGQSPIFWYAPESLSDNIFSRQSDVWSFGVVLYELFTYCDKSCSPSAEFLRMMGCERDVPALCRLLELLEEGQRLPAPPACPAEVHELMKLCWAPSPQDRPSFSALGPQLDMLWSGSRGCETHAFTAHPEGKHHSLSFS
# Experimental: (§1) The human cancer cell lines used in the experiment were U87-MG (human malignant glioblastoma) and MDA-MB-231 (human malignant breast cancer) cell lines, and various kinds of human-derived blood and solid cancer cells including these human cancer cell lines were cultured as previously described (Jung J E, et al. FASEB J. 19, 1296-1298 (2005)). The human Hodgkin lymphoma cancer cell lines L540 and HLDM-2 used in the experiment were obtained from the German Collection of Microorganism and Cell Cultures (DSMZ, Germany) and cultured using RPMI 1640 medium containing 20% FBS in a 5% CO2 incubator at a temperature of 37° C.
# (§2) Western blot analysis was performed (Jung J E, et al. FASEB J. 19, 1296-1298 (2005)). The cells were washed two times with PBS and suspended in the lysate (50 mM Tris-HCl, pH 7.4, 350 mM NaCl, 1% Triton X-100, 0.5% Nonidet P-40, 10% glycerol, 0.1% SDS, 1 mM EDTA, 1 mM EGTA, 1 mM Na3VO4, 1 mM PMSF, protease and phosphorylation inhibitor) and the cell membrane and nuclear membrane were crushed to lyse the cells. The insoluble protein fraction was removed by centrifugation, and the supernatant was mixed with SDS electrophoresis buffer and electrophoresis (SDS-PAGE) was performed to detect the protein with the desired antibody and to confirm the protein expression level.
# STAT92E = assay: Drosophila cell luciferase assay (10XSTAT92E-luciferase reporter); assay type: cell-based; conditions: activated by the ligand upd or Hop
# Experimental: Drosophila cells (S2-NP, 24×3) used in the experiment were cultured as previously described (Kim B H, et al. Mol Cancer Ther. 7, 2672-2680 (2008)). S2-NP (Drosophila Schneider cell) cells were Drosophila-derived macrophage-like cells and were cultured in Schneider's medium. 24×3 cells were cell lines stably expressed by inserting 10XSTAT92E-luciferase and PolIII-Renilla luciferase-labeled plasmid DNA as reporter constructs into S2-NP cells and were cultured in a medium prepared by adding […] of geneticin to the same medium as that for S2-NP. S2-NP cells in which unpaired (upd) or HOPT^Tum-l as a ligand was expressed and 24×3 cells constructed with reporter constructs were mixed at a constant ratio and cultured for 24 hours in the presence of a compound, the expression level of STAT92E was measured using a luminometer, and the inhibition effect was compared with that of the DMSO-treated group.
# ERK signaling process = assay: Western blot of signaling in L540 cells: ERK; assay type: cell-based, human
# Experimental: as §1, §2
# Src family kinase Lyn = target: T2, Src family kinase Lyn (Homo sapiens, UniProt P07948); assay: Western blot of signaling in L540 cells: Lyn; assay type: cell-based
# T2 construct: endogenous in cells; host or cells: L540
# T2 sequence (P07948 whole entry): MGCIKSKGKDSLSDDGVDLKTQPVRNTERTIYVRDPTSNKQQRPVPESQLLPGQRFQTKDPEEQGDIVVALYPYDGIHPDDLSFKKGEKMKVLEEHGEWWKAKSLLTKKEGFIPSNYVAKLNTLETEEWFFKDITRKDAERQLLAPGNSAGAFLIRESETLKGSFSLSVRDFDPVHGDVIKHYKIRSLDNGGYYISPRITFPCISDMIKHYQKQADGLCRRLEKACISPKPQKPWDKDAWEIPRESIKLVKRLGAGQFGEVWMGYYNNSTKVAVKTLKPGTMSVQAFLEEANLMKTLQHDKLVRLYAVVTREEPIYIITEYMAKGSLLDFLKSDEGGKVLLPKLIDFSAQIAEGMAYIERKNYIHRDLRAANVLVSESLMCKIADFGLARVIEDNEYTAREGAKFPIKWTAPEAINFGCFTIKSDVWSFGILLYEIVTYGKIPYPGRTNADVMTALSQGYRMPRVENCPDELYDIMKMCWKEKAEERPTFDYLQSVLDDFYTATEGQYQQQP
# Experimental: as §1, §2
# STAT3 [1] = target: T3, STAT3 (Homo sapiens, UniProt P40763); assay: Western blot in HDLM-2 cells; assay type: cell-based; parameters: endogenous in cells; host or cells: L540, HDLM-2, U87-MG, MDA-MB-231, further human glioblastoma and breast cancer lines
# T3 sequence (P40763 whole entry): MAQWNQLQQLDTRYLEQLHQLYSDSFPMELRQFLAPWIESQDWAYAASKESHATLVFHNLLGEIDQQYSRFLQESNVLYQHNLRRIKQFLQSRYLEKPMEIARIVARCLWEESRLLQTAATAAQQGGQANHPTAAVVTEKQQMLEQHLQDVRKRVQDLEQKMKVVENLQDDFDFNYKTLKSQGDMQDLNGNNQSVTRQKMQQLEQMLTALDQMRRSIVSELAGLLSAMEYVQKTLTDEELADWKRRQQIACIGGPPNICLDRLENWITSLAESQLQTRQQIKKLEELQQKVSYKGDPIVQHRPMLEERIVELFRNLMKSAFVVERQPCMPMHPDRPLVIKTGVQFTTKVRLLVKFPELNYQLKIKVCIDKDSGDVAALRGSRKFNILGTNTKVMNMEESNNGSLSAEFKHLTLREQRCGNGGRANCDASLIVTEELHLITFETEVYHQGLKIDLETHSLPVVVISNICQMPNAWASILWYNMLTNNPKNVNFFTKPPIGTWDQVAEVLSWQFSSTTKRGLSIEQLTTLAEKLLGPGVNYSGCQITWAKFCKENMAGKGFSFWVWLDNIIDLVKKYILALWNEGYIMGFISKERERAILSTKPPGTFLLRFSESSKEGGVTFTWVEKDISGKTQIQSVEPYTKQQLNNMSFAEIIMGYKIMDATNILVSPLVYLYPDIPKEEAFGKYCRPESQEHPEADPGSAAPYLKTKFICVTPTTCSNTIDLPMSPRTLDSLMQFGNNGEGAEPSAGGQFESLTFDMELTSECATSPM
# Experimental: as §1, §2
# STAT3 [2] = target: T3, STAT3; assay: Western blot in Hodgkin lymphoma cell line L540; assay type: cell-based; parameters: endogenous in cells; host or cells: L540, HDLM-2, U87-MG, MDA-MB-231, further human glioblastoma and breast cancer lines; conditions: L540 cells
# Experimental: as §1, §2
# SOCS3 = assay: Western blot of SOCS3 expression in L540 cells; assay type: cell-based, human
# Experimental: as §1, §2
# STAT3 [3] = target: T3, STAT3; assay: Western blot of the 46 Table 1 compounds in Hodgkin lymphoma cell lines L540 and HDLM-2; assay type: cell-based; parameters: endogenous in cells; host or cells: L540, HDLM-2, U87-MG, MDA-MB-231, further human glioblastoma and breast cancer lines; conditions: for STAT3 inhibitory efficacy, first screening: L540 and HDLM-2
# Experimental: as §1, §2
Structure (SMILES),inhibitory action on JAK3 (JAK3),expression of STAT92E (luciferase assay) (STAT92E),inhibitory action on ERK signaling process (ERK signaling process),inhibitory action on Src family kinase Lyn (Src family kinase Lyn),phosphorylation of tyrosine residue 705 of STAT3 (STAT3 [1]),phosphorylation of tyrosine residue 705 of STAT3 (STAT3 [2]),selective inhibitory action on STAT3 versus STAT1 or STAT5 (STAT3 [2]),expression of SOCS3 (SOCS3),"STAT3 inhibitory efficacy, first screening (STAT3 [3])","STAT3 inhibitory efficacy, secondary screening (STAT3 [3]; L540 and HDLM-2, 50 μM)","phosphorylation of STAT tyrosine 705 (STAT3 [3]; L540 and HDLM-2, various concentrations)"
"CC(C)(C)c1nc(COc2cccc([N+](=O)[O-])c2)no1 [ODZ17690, 5-tert-butyl-3-(3-nitro-phenoxymethyl)-[1,2,4]oxadiazole]",weak inhibitory action,effectively inhibited the expression of STAT92E,did not exert an inhibitory action,did not exert an inhibitory action,selectively inhibited phosphorylation of tyrosine residue 705 of STAT3,effectively inhibited the phosphorylation of tyrosine residue 705 of STAT3,stronger selective inhibitory action on STAT3 than on STAT1 or STAT5,effectively inhibited,–,–,–
"O=C(NCC1CCCO1)C1CC(=O)N(c2ccc(O)cc2)C1 (stereo not drawn) [compound 45, 1-(4-hydroxyphenyl)-5-oxo-N-(tetrahydro-2-furanylmethyl)-3-pyrrolidinecarboxamide]",–,–,–,–,–,–,–,–,judged to exert superior STAT3 inhibitory efficacy,–,–
"Cc1ccc(S(=O)(=O)Nc2cccc(C(=O)Nc3cccnc3)c2)cc1 [compound 46, 3-{[(4-methylphenyl)sulfonyl]amino}-N-3-pyridinylbenzamide]",–,–,–,–,–,–,–,–,judged to exert superior STAT3 inhibitory efficacy,judged to exert superior STAT3 inhibitory efficacy,significantly inhibited the phosphorylation of STATdml tyrosine 705 in a concentration-dependent manner
